# Assay results taken from patent publication US20060069132A1, “Azolecarboxamide herbicides” (priority 2004, published 2006).
# Experiments:
# [1] = tested on: barnyardgrass; experiment: Test B pre-/postemergence herbicide test; assay type: in vivo, Echinochloa crus-galli; settings: for Plant response rating, Barnyardgrass: preemergence; for Barnyardgrass plant response rating: postemergence, visual rating, scale 0 (no effect) to 100 (complete control)
# In short: (§1)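 Formulation: non-phytotoxic solvent mix with surfactant. Timing: preemergence on seed and postemergence on 2–18 cm plants, applied concurrently. Readout after 13–15 d greenhouse: visual 0–100 control rating against controls.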
# [2] = tested on: Surinam grass; experiment: Test B pre-/postemergence herbicide test; assay type: in vivo, Urochloa decumbens; settings: for Plant response rating, Surinam Grass: preemergence; for Surinam Grass plant response rating: postemergence, visual rating, scale 0 (no effect) to 100 (complete control)
# In short: (§2)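 Herbicidal effect was judged by eye on a 0–100 scale after plants stood 13 to 15 days in the greenhouse following pre- or postemergence treatment with surfactant-containing formulations.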
# [3] = tested on: cocklebur; experiment: Test B pre-/postemergence herbicide test; assay type: in vivo, Xanthium strumarium; settings: for Plant response rating, Cocklebur: preemergence; for Cocklebur plant response rating: postemergence, visual rating, scale 0 (no effect) to 100 (complete control)
# In short: as §1
# [4] = tested on: corn; experiment: Test B pre-/postemergence herbicide test; assay type: in vivo, Zea mays; settings: for Plant response rating, Corn: preemergence; for Corn plant response rating: postemergence, visual rating, scale 0 (no effect) to 100 (complete control)
# In short: as §2
# [5] = tested on: large crabgrass; experiment: Test B pre-/postemergence herbicide test; assay type: in vivo, Digitaria sanguinalis; settings: for Plant response rating, Crabgrass, Large: preemergence; for Crabgrass, Large plant response rating: postemergence, visual rating, scale 0 (no effect) to 100 (complete control)
# In short: as §2
# [6] = tested on: giant foxtail; experiment: Test B pre-/postemergence herbicide test; assay type: in vivo, Setaria faberi; settings: for Plant response rating, Foxtail, Giant: preemergence; for Foxtail, Giant plant response rating: postemergence, visual rating, scale 0 (no effect) to 100 (complete control)
# In short: as §2
# [7] = tested on: lambsquarters; experiment: Test B pre-/postemergence herbicide test; assay type: in vivo, Chenopodium album; settings: for Plant response rating, Lambsquarters: preemergence; for Lambsquarters plant response rating: postemergence, visual rating, scale 0 (no effect) to 100 (complete control)
# In short: as §2
# [8] = tested on: morningglory; experiment: Test B pre-/postemergence herbicide test; assay type: in vivo, Ipomoea coccinea; settings: for Plant response rating, Morningglory: preemergence; for Morningglory plant response rating: postemergence, visual rating, scale 0 (no effect) to 100 (complete control)
# In short: as §1
# [9] = tested on: pigweed; experiment: Test B pre-/postemergence herbicide test; assay type: in vivo, Amaranthus retroflexus; settings: for Plant response rating, Pigweed: preemergence; for Pigweed plant response rating: postemergence, visual rating, scale 0 (no effect) to 100 (complete control)
# In short: as §2
# [10] = tested on: rice; experiment: Test B pre-/postemergence herbicide test; assay type: in vivo, Oryza sativa; settings: 500 g ai/ha; visual rating 0-100, 0 no effect, 100 complete control; preemergence
# In short: as §2
# [11] = tested on: velvetleaf; experiment: Test B pre-/postemergence herbicide test; assay type: in vivo, Abutilon theophrasti; settings: for Plant response rating, Velvetleaf: preemergence; for Velvetleaf plant response rating: postemergence, visual rating, scale 0 (no effect) to 100 (complete control)
# In short: as §2
# [12] = tested on: rice; experiment: Test B flooded paddy test; assay type: in vivo, Oryza sativa; settings: 1000 g ai/ha, visual rating, scale 0 to 100 (0 no effect, 100 complete control), 13 to 15 days
# In short: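 Treated at 2-leaf (paddy) or 1–4-leaf, 2–18 cm (postemergence); greenhouse 13–15 d; visual score vs control, 0 none to 100 complete control; dash = not tested.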
# [13] = tested on: small flower umbrella sedge; experiment: Test B flooded paddy test; assay type: in vivo, Cyperus difformis; settings: 1000 g ai/ha, visual rating, scale 0 to 100 (0 no effect, 100 complete control), 13 to 15 days
# In short: (§3)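 Scale 0–100: zero equals no visible effect, 100 complete control, judged by eye relative to controls. Timing: 13 to 15 days in greenhouse post-treatment. Growth stage at spraying: two leaves (paddy) or one to four leaves, 2–18 cm (postemergence).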
# [14] = tested on: ducksalad; experiment: Test B flooded paddy test; assay type: in vivo, Heteranthera limosa; settings: 1000 g ai/ha, visual rating, scale 0 to 100 (0 no effect, 100 complete control), 13 to 15 days
# In short: as §3
# [15] = tested on: barnyardgrass; experiment: Test B flooded paddy test; assay type: in vivo, Echinochloa crus-galli; settings: 1000 g ai/ha, visual rating, scale 0 to 100 (0 no effect, 100 complete control), 13 to 15 days
# In short: as §3
# [16] = tested on: rice; experiment: Test C flooded paddy test; assay type: in vivo, Oryza sativa
# In short: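 Injury scored visually against controls on a 0 (no effect) to 100 (complete control) scale, 12 to 14 days after treatment in greenhouse. Flooded paddy plants treated at 2-leaf stage; postemergence plants at 1- to 4-leaf stage, 2 to 18 cm tall.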
# [17] = tested on: smallflower umbrella sedge; experiment: Test C flooded paddy test; assay type: in vivo, Cyperus difformis
# [18] = tested on: ducksalad; experiment: Test C flooded paddy test; assay type: in vivo, Heteranthera limosa
# [19] = tested on: barnyardgrass; experiment: Test C flooded paddy test; assay type: in vivo, Echinochloa crus-galli
# In short: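 Ratings (0 = no effect, 100 = complete control) come from visual comparison with untreated plants after 12 to 14 days in the greenhouse. Treatment was postemergence at the 1- to 4-leaf stage (2–18 cm), or at the 2-leaf stage for the flooded paddy barnyardgrass.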
# [20] = 500 g ai/ha, visual rating 0-100, 0 no effect, 100 complete control
# [21] = 125 g ai/ha, 0 to 100 scale, 0 is no effect, 100 is complete control
# [22] = 62 g ai/ha, scale 0 to 100 (0 no effect, 100 complete control)
# [23] = 125 g ai/ha, scale 0 to 100 (0 no effect, 100 complete control)
# [24] = 250 g ai/ha, scale of 0 to 100, 0 is no effect, 100 is complete control
# [25] = 500 g ai/ha, visual rating after 12 to 14 days, scale 0 to 100 (0 no effect, 100 complete control)
structure (smiles),measurement,setting,value
C=CCN(C)C(=O)c1ccnc(NC(=O)c2cc(C(C)(C)C)nn2CC)c1 [Compound 159],"Plant response rating, Barnyardgrass",[1]; [20],90
same,Barnyardgrass plant response rating,[1]; 125 g ai/ha,0
same,Barnyardgrass plant response rating,[1]; 500 g ai/ha,0
same,"Plant response rating, Barnyardgrass",[1]; [21],70
same,"Plant response rating, Surinam Grass",[2]; [20],70
same,Surinam Grass plant response rating,[2]; 125 g ai/ha,0
same,Surinam Grass plant response rating,[2]; 500 g ai/ha,20
same,"Plant response rating, Surinam Grass",[2]; [21],60
same,"Plant response rating, Cocklebur",[3]; [20],100
same,Cocklebur plant response rating,[3]; 125 g ai/ha,80
same,Cocklebur plant response rating,[3]; 500 g ai/ha,80
same,"Plant response rating, Cocklebur",[3]; [21],90
same,"Plant response rating, Corn",[4]; [20],0
same,Corn plant response rating,[4]; 125 g ai/ha,0
same,Corn plant response rating,[4]; 500 g ai/ha,0
same,"Plant response rating, Corn",[4]; [21],0
same,"Plant response rating, Crabgrass, Large",[5]; [20],70
same,"Crabgrass, Large plant response rating",[5]; 125 g ai/ha,0
same,"Crabgrass, Large plant response rating",[5]; 500 g ai/ha,0
same,"Plant response rating, Crabgrass, Large",[5]; [21],40
same,"Plant response rating, Foxtail, Giant",[6]; [20],60
same,"Foxtail, Giant plant response rating",[6]; 125 g ai/ha,40
same,"Foxtail, Giant plant response rating",[6]; 500 g ai/ha,50
same,"Plant response rating, Foxtail, Giant",[6]; [21],50
same,"Plant response rating, Lambsquarters",[7]; [20],100
same,Lambsquarters plant response rating,[7]; 125 g ai/ha,90
same,Lambsquarters plant response rating,[7]; 500 g ai/ha,90
same,"Plant response rating, Lambsquarters",[7]; [21],100
same,"Plant response rating, Morningglory",[8]; [20],40
same,Morningglory plant response rating,[8]; 125 g ai/ha,10
same,Morningglory plant response rating,[8]; 500 g ai/ha,10
same,"Plant response rating, Morningglory",[8]; [21],30
same,"Plant response rating, Pigweed",[9]; [20],100
same,Pigweed plant response rating,[9]; 125 g ai/ha,80
same,Pigweed plant response rating,[9]; 500 g ai/ha,80
same,"Plant response rating, Pigweed",[9]; [21],100
same,"Plant response rating, Rice",[10],70
same,"Plant response rating, Velvetleaf",[11]; [20],90
same,Velvetleaf plant response rating,[11]; 125 g ai/ha,20
same,Velvetleaf plant response rating,[11]; 500 g ai/ha,70
same,"Plant response rating, Velvetleaf",[11]; [21],80
same,Rice plant response rating,[12],60
same,"Sedge, Umbrella plant response rating",[13],70
same,Ducksalad plant response rating,[14],90
same,Barnyardgrass plant response rating,[15],80
same,Rice plant response rating,[16]; [22],60
same,Rice plant response rating,[16]; [23],60
same,Rice plant response rating,[16]; [24],80
same,"Plant response rating, Rice",[16]; [25],90
same,"Sedge, Umbrella plant response rating",[17]; [22],10
same,"Sedge, Umbrella plant response rating",[17]; [23],40
same,"Sedge, Umbrella plant response rating",[17]; [24],60
same,"Plant response rating, Sedge, Umbrella",[17]; [25],80
same,Ducksalad plant response rating,[18]; [22],80
same,Ducksalad plant response rating,[18]; [23],90
same,Ducksalad plant response rating,[18]; [24],90
same,"Plant response rating, Ducksalad",[18]; [25],100
same,Barnyardgrass plant response rating,[19]; [22],30
same,Barnyardgrass plant response rating,"[19]; 125 g ai/ha, scale of 0 to 100, 0 is no effect, 100 is complete control",50
same,Barnyardgrass plant response rating,[19]; [24],70
same,"Plant response rating, Barnyardgrass",[19]; [25],80
